Test results: PMC4763008, “Selective Inhibition of Bakuchicin Isolated from Psoralea corylifolia on CYP1A in Human Liver Microsomes” (Evidence-based Complementary and Alternative Medicine : eCAM, 2016)
Where two headings read alike, the source gives them in different places.

Tests used:
Format in all cases: in vitro ADME
CYP2B6 = target: T1, CYP2B6 (Homo sapiens, UniProt P20813); assay: CYP inhibition, cocktail of probe substrates in pooled human liver microsomes: bupropion hydroxylation; details: pooled HLMs, substrate 50 μM
T1 construct: tissue Corning Gentest BD UltraPool HLM 150; host or cells: pooled human liver microsomes
T1 sequence (P20813 1-491): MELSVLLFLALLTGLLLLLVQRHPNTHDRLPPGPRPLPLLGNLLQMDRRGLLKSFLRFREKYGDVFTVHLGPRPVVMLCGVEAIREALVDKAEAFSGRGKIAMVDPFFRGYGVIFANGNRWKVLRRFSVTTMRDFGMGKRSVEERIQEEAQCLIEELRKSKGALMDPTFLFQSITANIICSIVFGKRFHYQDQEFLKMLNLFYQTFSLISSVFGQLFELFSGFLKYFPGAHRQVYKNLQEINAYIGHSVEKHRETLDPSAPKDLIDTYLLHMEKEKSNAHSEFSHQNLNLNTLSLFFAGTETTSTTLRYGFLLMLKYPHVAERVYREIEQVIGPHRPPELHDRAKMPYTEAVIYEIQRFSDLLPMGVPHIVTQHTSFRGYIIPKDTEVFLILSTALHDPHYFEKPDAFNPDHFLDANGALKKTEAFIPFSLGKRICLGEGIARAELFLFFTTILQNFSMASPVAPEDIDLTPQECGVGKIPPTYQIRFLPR
Procedure: (§1) All incubations were performed in duplicate, and data are presented as means. Briefly, each reaction was performed with 0.5 mg/mL pooled human liver microsomes in a final incubation volume of 0.1 mL. The incubation medium consisted of 0.1 M potassium phosphate buffer (pH 7.4) containing cocktail of probe substrates and a NADPH-generating system (NGS) of 0.1 M glucose 6-phosphate, 10 mg/mL β-NADPH, and 1.0 U/mL glucose-6-phosphate dehydrogenase. To investigate the IC50 of bakuchicin during CYP1A inhibition, bakuchicin (at final concentrations of 0–25 μM) was incubated without preincubation. In addition, the mixture with bakuchicin was preincubated for 15 min without the probe substrate cocktail in the presence or absence of 1 mM β-NADPH. After the reaction was initiated by adding the NGS for 60 min, incubated samples were terminated by adding 100 μL acetonitrile containing 0.1% formic acid and 2.5 μL of internal standard solution (5 μM reserpine) in methanol. After mixing and centrifuging at 13,000 ×g for 12 min, a 5 μL aliquot was injected onto a C18 column for LC-MS/MS analysis.
(§2) All measurements were performed using LC-MS/MS in multiple reaction monitoring mode. LC-MS/MS was performed using an Accela™ LC system coupled to a TSQ Vantage triple quadrupole mass spectrometer (Thermo Fisher Scientific Inc., USA) equipped with a HESI-II Spray source. Electrospray ionization was performed in positive mode at a spray voltage of 3,500 V (except for the detection of 6-hydroxy chlorzoxazone). Nitrogen was used as a sheath and auxiliary gas at optimum values of 45 and 20 (arbitrary units), respectively. Vaporizer and capillary temperatures were 150 and 300°C, respectively. For LC analysis an Inertsil® ODS-2 (3 μm, 2.1 × 150 mm) column (GL Sciences Inc., Torrance, CA) was used. The mobile phase consisted of acetonitrile (mobile phase A) and water (mobile phase B), both of which contained 0.1% formic acid, at a flow rate of 0.22 mL/min at 30°C.
(§3) All incubations were performed in duplicate, and data are presented as means. […]

CYP2D6 = target: T2, CYP2D6 (Homo sapiens, UniProt P10635); assay: CYP inhibition, cocktail of probe substrates in pooled human liver microsomes: dextromethorphan O-demethylation; details: pooled HLMs, dextromethorphan O-deethylation, substrate 5 μM
T2 construct: each reaction was performed with 0.5 mg/mL pooled human liver microsomes; tissue Corning Gentest BD UltraPool HLM 150; host or cells: pooled human liver microsomes

CYP1A2 = target: T3, CYP1A2 (Homo sapiens, UniProt P05177); assay: CYP inhibition, cocktail of probe substrates in pooled human liver microsomes: phenacetin O-deethylation; details: for IC50: pooled HLMs, substrate 80 μM
T3 construct: tissue Corning Gentest BD UltraPool HLM 150; host or cells: pooled human liver microsomes
T3 sequence (P05177 1-516): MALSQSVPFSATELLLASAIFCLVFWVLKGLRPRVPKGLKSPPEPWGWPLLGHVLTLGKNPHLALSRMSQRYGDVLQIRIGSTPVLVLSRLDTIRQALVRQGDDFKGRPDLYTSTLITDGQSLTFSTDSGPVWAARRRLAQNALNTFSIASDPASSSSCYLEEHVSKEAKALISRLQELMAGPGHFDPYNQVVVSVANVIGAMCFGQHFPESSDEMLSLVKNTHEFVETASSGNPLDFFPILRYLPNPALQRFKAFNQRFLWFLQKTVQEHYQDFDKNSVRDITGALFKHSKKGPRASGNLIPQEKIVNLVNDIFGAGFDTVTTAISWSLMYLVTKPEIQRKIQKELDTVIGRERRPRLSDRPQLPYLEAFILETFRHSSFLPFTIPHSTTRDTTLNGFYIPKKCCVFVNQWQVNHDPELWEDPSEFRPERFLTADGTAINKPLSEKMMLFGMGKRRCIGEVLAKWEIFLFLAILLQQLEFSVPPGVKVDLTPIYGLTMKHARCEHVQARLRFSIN
Procedure: as §1, §2
All incubations were performed in duplicate, and data are presented as means. IC50 values (the concentration of inhibitor causing a 50% inhibition in enzyme activity) were obtained using percent activity versus log[I] concentration plots. Kinetic parameters were estimated by curve fitting using SigmaPlot (version 12.0, Systat Software, Inc.).

CYP3A4 = target: T4, CYP3A4 (Homo sapiens, UniProt P08684); assay: CYP inhibition, cocktail of probe substrates in pooled human liver microsomes: midazolam 1'-hydroxylation; details: pooled HLMs, substrate 2.5 μM
T4 construct: each reaction was performed with 0.5 mg/mL pooled human liver microsomes; tissue Corning Gentest BD UltraPool HLM 150; host or cells: pooled human liver microsomes

CYP2E1 = target: T5, CYP2E1 (Homo sapiens, UniProt P05181); assay: CYP inhibition, cocktail of probe substrates in pooled human liver microsomes: chlorzoxazone 6-hydroxylation; details: pooled HLMs, substrate 50 μM
T5 construct: tissue Corning Gentest BD UltraPool HLM 150; host or cells: pooled human liver microsomes
Procedure: as §1, §2, §3

CYP2C9 = target: T6, CYP2C9 (Homo sapiens, UniProt P11712); assay: CYP inhibition, cocktail of probe substrates in pooled human liver microsomes: diclofenac 4'-hydroxylation; details: pooled HLMs, substrate 10 μM
T6 construct: each reaction was performed with 0.5 mg/mL pooled human liver microsomes; tissue Corning Gentest BD UltraPool HLM 150; host or cells: pooled human liver microsomes

[1] = 15 min preincubation with NADPH, read-out: IC50 With preincubation with NADPH
[2] = 15 min preincubation without NADPH, read-out: IC50 With preincubation Without NADPH
[3] = without preincubation, read-out: IC50 Without preincubation

T4 sequence (P08684 whole entry): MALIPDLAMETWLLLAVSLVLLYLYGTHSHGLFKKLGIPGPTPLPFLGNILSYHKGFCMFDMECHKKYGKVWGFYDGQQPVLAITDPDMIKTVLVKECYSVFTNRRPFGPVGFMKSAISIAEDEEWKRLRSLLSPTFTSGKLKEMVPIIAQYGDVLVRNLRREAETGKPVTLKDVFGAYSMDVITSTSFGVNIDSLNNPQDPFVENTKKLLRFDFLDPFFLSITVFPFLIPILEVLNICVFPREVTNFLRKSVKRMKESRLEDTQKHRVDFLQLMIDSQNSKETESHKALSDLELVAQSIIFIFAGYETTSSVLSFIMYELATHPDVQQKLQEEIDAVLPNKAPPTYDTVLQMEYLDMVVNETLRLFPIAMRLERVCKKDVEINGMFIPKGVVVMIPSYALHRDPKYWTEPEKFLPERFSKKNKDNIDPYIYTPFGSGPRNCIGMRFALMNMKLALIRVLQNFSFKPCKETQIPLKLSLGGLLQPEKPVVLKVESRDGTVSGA
T2 sequence (P10635 whole entry): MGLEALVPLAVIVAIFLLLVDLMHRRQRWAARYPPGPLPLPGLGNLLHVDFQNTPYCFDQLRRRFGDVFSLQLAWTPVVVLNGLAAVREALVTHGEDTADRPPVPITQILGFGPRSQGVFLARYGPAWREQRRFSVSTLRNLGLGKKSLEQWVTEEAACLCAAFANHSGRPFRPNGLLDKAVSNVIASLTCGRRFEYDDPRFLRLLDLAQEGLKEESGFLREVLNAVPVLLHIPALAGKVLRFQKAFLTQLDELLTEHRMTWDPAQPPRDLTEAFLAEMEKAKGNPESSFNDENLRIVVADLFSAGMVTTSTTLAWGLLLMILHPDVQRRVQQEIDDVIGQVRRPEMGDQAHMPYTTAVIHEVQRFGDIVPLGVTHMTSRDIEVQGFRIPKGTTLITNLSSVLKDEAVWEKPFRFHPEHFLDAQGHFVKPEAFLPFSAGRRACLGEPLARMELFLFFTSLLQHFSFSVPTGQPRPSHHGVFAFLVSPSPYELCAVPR
T5 sequence (P05181 whole entry): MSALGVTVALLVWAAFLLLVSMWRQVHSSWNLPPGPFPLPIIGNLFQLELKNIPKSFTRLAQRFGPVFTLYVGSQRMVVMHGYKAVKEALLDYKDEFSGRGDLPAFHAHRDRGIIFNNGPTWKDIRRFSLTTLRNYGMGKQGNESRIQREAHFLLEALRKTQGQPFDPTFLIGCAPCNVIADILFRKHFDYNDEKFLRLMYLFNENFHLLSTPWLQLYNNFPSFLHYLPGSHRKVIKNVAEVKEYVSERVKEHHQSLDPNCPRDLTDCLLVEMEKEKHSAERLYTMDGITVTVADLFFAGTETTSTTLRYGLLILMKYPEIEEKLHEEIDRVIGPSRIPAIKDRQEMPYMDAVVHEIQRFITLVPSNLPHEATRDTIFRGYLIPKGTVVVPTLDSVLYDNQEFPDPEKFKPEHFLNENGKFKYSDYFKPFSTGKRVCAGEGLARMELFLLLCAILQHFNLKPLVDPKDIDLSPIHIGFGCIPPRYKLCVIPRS
T6 sequence (P11712 whole entry): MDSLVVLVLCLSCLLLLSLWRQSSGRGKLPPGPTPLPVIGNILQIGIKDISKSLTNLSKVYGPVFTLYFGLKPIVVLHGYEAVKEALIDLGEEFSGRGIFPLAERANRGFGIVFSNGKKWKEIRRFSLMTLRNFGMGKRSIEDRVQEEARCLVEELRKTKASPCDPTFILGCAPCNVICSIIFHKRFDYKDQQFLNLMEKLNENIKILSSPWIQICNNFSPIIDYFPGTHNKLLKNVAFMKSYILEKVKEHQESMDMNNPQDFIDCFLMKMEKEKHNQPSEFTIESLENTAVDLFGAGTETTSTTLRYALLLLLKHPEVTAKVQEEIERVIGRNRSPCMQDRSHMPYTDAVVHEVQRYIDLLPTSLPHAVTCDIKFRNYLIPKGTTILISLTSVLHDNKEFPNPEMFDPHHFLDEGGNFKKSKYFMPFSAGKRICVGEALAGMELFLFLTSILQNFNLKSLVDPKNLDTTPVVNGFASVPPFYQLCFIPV

IC50 (CYP2B6; [1]): 11.5 µM
IC50 (CYP2B6; [2]): 16.4 µM
IC50 (CYP2B6; [3]): 14.2 µM
IC50 (CYP2D6; [1]): 15.1 µM
IC50 (CYP2D6; [2]): 21.7 µM
IC50 (CYP2D6; [3]): 18.2 µM
time dependence of CYP1A inhibition (CYP1A2; HLMs, preincubation time 0-20 min at 37°C): not time-dependent inhibition
IC50 (CYP1A2; [1]): 220 nM
IC50 (CYP1A2; [2]): 220 nM
IC50 (CYP1A2; [3]): 430 nM
IC50 (CYP3A4; [1]): > 100 µM
IC50 (CYP3A4; [2]): > 100 µM
IC50 (CYP3A4; [3]): > 100 µM
IC50 (CYP2E1; [1]): > 100 µM
IC50 (CYP2E1; [2]): > 100 µM
IC50 (CYP2E1; [3]): > 100 µM
IC50 (CYP2C9; [1]): > 100 µM
IC50 (CYP2C9; [2]): > 100 µM
IC50 (CYP2C9; [3]): > 100 µM
Structure (SMILES): O=c1ccc2c(ccc3ccoc32)o1 [Bakuchicin]
